Among the test systems are A549; MDA-N; K562; EKVX; MDA-MB-435; OVCAR-4; HOP-92; NCI-H460; HT-29; SF-295; COLO 205; LOX IMVI; UO-31; OVCAR-3; SK-OV-3; SF-539; HCT-15; HCT-116; 786-0; PC-3.
What all share (test): NCI tumour cell line growth inhibition, 48 h

The structures appear in SMILES notation.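 Method: 48-hour compound exposure of cells in 96-well plates, five concentrations, linear interpolation of endpoints. GI50 = concentration required for 50% inhibition of growth.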 The source made the active and inactive calls. No stated cut-off is given here; in the data, active = GI50 up to about 1.1 µM and inactive = higher. Bounds are passed on as bounds.

Take `C=C1CC2(C[C@@H](c3ccccc3)O[C@@H](c3ccccc3)C2)OC1=O` (stereo not given in full): the GI50 is 5.89 µM (inactive) with A549; 2.28 µM (inactive) with MDA-N; 2.22 µM (inactive) with K562; 13 µM (inactive) with EKVX; 2.99 µM (inactive) in the assay with MDA-MB-435; 5.7 µM (inactive) in the assay on OVCAR-4. In addition, the GI50 in the assay on HOP-92 is 5.22 µM (inactive); with NCI-H460 it was 10.2 µM (inactive); with HT-29 it was 2.92 µM (inactive); with SF-295, 13.6 µM (inactive); in the assay with COLO 205, 2.03 µM (inactive); with LOX IMVI, 1.25 µM (inactive). For the same compound, the GI50 was 6.24 µM (inactive) in the assay on UO-31; 2.36 µM (inactive) in the assay on OVCAR-3; 14.5 µM (inactive) in the assay on SK-OV-3; 1.92 µM (inactive) with SF-539; 2.54 µM in the assay with HCT-15; 1.9 µM (inactive) in the assay on HCT-116. The results for the GI50 in the assay on 786-0 and with PC-3 were 2.59 µM (inactive) and 3.5 µM (inactive), respectively.

Consider `O[C@]12C=C(c3nccc4c3[nH]c3ccccc34)[C@@H]3CCN(CCCC/C=C\CC1)C[C@@]31CC3/C=C\CCCCN3[C@H]12` (stereo not given in full), for which the GI50 in the assay on A549 is 0.36 µM (active); with MDA-N, 0.367 µM (active); in the assay with K562, 0.367 µM (active); with EKVX it was 0.441 µM (active); in the assay on MDA-MB-435 it was 0.366 µM (active); with OVCAR-4 it was 0.454 µM (active). Also, the GI50 in the assay on HOP-92 is 0.252 µM (active); in the assay with NCI-H460 it was 0.191 µM (active); with HT-29, 0.119 µM (active); in the assay with SF-295, 0.513 µM (active); with COLO 205, 0.344 µM (active); in the assay with LOX IMVI, 0.275 µM (active). Also, the GI50 was 0.199 µM (active) in the assay with UO-31; 0.302 µM (active) with OVCAR-3; 0.0869 µM (active) with SK-OV-3; 0.53 µM (active) in the assay on SF-539; 0.288 µM in the assay with HCT-15; 0.243 µM (active) in the assay with HCT-116. In addition, the GI50 in the assay on 786-0 was 0.13 µM (active); in the assay on PC-3, 0.351 µM (active).

For the compound `CCN(CCO)CC1COc2ccccc2O1` (stereo not given), the GI50 in the assay on A549, in the assay with MDA-N, with K562, in the assay on EKVX, with MDA-MB-435 and in the assay with OVCAR-4 was > 100 µM (inactive) in each case. Also, the GI50 in the assay with HOP-92, in the assay with NCI-H460, in the assay with HT-29, in the assay with SF-295, with COLO 205 and in the assay on LOX IMVI was > 100 µM (inactive) throughout. In addition, the GI50 in the assay on UO-31 is > 100 µM (inactive); in the assay with OVCAR-3, > 100 µM (inactive); in the assay with SK-OV-3 it was > 100 µM (inactive); in the assay on SF-539, > 100 µM (inactive); in the assay on HCT-15 it was more than 100 µM; with HCT-116, > 100 µM (inactive). Besides, the GI50 with 786-0 and with PC-3 was > 100 µM (inactive) in each case.

For the compound `Cc1ccc(C[N+](C)(C)N)cc1C`, the GI50 with A549, with MDA-N, with K562, in the assay with EKVX, in the assay with MDA-MB-435 and with OVCAR-4 was > 10 µM (inactive) in each case. For the same compound, the GI50 in the assay with HOP-92, in the assay with NCI-H460, in the assay with HT-29, with SF-295, in the assay with COLO 205 and with LOX IMVI was > 10 µM (inactive) throughout. In addition, the GI50 in the assay on UO-31 was > 10 µM (inactive); in the assay on OVCAR-3, > 10 µM (inactive); in the assay on SK-OV-3 it was > 10 µM (inactive); with SF-539, > 10 µM (inactive); in the assay with HCT-15 it was more than 10 µM; in the assay on HCT-116, > 10 µM (inactive). Further, the GI50 in the assay with 786-0 and with PC-3 was > 10 µM (inactive) each time.

On to `CCOC(=O)Oc1ccc2c(c1)c(=O)c1c(NCCN(CC)CC)ccc3nnn2c31`, for which the GI50 was 0.2 µM (active) in the assay on A549; 2.94 µM (inactive) with MDA-N; 0.948 µM (active) in the assay on K562; 6.41 µM (inactive) in the assay with EKVX; 3.67 µM (inactive) in the assay on MDA-MB-435; 2.55 µM (inactive) with OVCAR-4. Moreover, the GI50 in the assay with HOP-92 was 4.22 µM (inactive); in the assay on NCI-H460 it was < 0.0209 µM (active); with HT-29, 1.29 µM (inactive); in the assay with SF-295 it was 3.78 µM (inactive); with COLO 205, 1.01 µM (active); with LOX IMVI, 1.18 µM (inactive). Also, the GI50 is 0.165 µM (active) in the assay with UO-31; 4.46 µM (inactive) in the assay on OVCAR-3; 8 µM (inactive) in the assay on SK-OV-3; 0.748 µM (active) in the assay on SF-539; 0.841 µM with HCT-15; 0.405 µM (active) in the assay with HCT-116. For the same compound, the GI50 in the assay with 786-0 was 0.488 µM (active); in the assay on PC-3 it was 2.19 µM (inactive).

Regarding `O=S(=O)(NC1OCCCC1I)c1ccccc1` (stereo not given), the GI50 in the assay with A549 is > 100 µM (inactive); in the assay on MDA-N, > 100 µM (inactive); in the assay with K562 it was > 100 µM (inactive); with EKVX, > 100 µM (inactive); in the assay with MDA-MB-435, > 100 µM (inactive); with OVCAR-4 it was 89.7 µM (inactive). Besides, the GI50 is > 100 µM (inactive) in the assay with HOP-92; > 100 µM (inactive) with NCI-H460; > 100 µM (inactive) in the assay with HT-29; > 100 µM (inactive) with SF-295; > 100 µM (inactive) in the assay on COLO 205; 84.9 µM (inactive) in the assay on LOX IMVI. Moreover, the GI50 in the assay on UO-31 was > 100 µM (inactive); in the assay on OVCAR-3, > 100 µM (inactive); in the assay with SK-OV-3 it was > 100 µM (inactive); in the assay with SF-539, > 100 µM (inactive); with HCT-15, more than 100 µM; with HCT-116 it was > 100 µM (inactive). The GI50 with 786-0 and in the assay with PC-3 was > 100 µM (inactive) each time.

On to `O=C1CC2OCC=C3CN4CCC5(C(=O)O)C(N1)C2C3CC45` (stereo not given), for which the GI50 with A549, in the assay on MDA-N, in the assay with K562, with EKVX, with MDA-MB-435 and in the assay on OVCAR-4 was > 100 µM (inactive) in each case. Besides, the GI50 in the assay with HOP-92, with NCI-H460, in the assay with HT-29, in the assay on SF-295, in the assay with COLO 205 and with LOX IMVI was > 100 µM (inactive) throughout. Besides, the GI50 is > 100 µM (inactive) with UO-31; > 100 µM (inactive) in the assay with OVCAR-3; > 100 µM (inactive) with SK-OV-3; > 100 µM (inactive) in the assay on SF-539; more than 100 µM in the assay with HCT-15; > 100 µM (inactive) with HCT-116. The GI50 in the assay with 786-0 and with PC-3 was > 100 µM (inactive) in each case.

`CCCCCCCC(=O)OC[n+]1cccc(-c2c(COC(=O)NC(C)C)c(COC(=O)NC(C)C)c3n2CCC3)c1`: the GI50 in the assay on A549 was > 96.2 µM (inactive); in the assay with MDA-N, > 100 µM (inactive); with K562, 83.6 µM (inactive); with EKVX, > 100 µM (inactive); with MDA-MB-435 it was > 100 µM (inactive); in the assay with OVCAR-4, > 100 µM (inactive). Further, the GI50 in the assay on HOP-92 is 44.8 µM (inactive); in the assay on NCI-H460, 46.1 µM (inactive); in the assay with HT-29 it was > 100 µM (inactive); with SF-295, > 84.1 µM (inactive); in the assay on COLO 205 it was > 87.7 µM (inactive); with LOX IMVI, 60.3 µM (inactive). In addition, the GI50 in the assay with UO-31 is 62.8 µM (inactive); in the assay on OVCAR-3 it was > 100 µM (inactive); in the assay on SK-OV-3, > 100 µM (inactive); in the assay with SF-539, 33.7 µM (inactive); in the assay on HCT-15, more than 100 µM; with HCT-116, 50 µM (inactive). Besides, the GI50 was 40 µM (inactive) in the assay on 786-0 and > 88.3 µM (inactive) with PC-3.

As to `CC1=C(CCC(C)CO)O[C@H]2C[C@H]3[C@@H]4CC[C@H]5C[C@@H](O)CC[C@]5(C)[C@H]4CC(=O)[C@]3(C)[C@@H]12` (stereo not given in full), the GI50 is 13.8 µM (inactive) in the assay on A549; 15.6 µM (inactive) in the assay with MDA-N; 10.4 µM (inactive) in the assay with K562; 29.9 µM (inactive) in the assay on EKVX; 18.9 µM (inactive) in the assay on MDA-MB-435; 25.2 µM (inactive) with OVCAR-4. The GI50 was 23.9 µM (inactive) with HOP-92; 6.87 µM (inactive) with NCI-H460; 13.7 µM (inactive) with HT-29; 1.27 µM (inactive) in the assay with SF-295; 8.97 µM (inactive) in the assay on COLO 205; 12.7 µM (inactive) with LOX IMVI. The GI50 is 12.4 µM (inactive) in the assay with UO-31; 4.94 µM (inactive) in the assay on OVCAR-3; 0.442 µM (active) in the assay with SK-OV-3; 19.2 µM (inactive) in the assay on SF-539; 17.1 µM in the assay on HCT-15; 17.5 µM (inactive) in the assay with HCT-116. The GI50 in the assay with 786-0 was 20.7 µM (inactive); with PC-3, 5.08 µM (inactive).

Consider `COc1ccc(Cc2nc3cc(Cl)ccc3o2)cc1`, for which the GI50 in the assay on A549 was 35.4 µM (inactive); in the assay on MDA-N, 35 µM (inactive); in the assay on K562, 34.4 µM (inactive); with EKVX, 27.2 µM (inactive); in the assay with MDA-MB-435, 22.1 µM (inactive); with OVCAR-4 it was 18.8 µM (inactive). Also, the GI50 in the assay on HOP-92 was 41.2 µM (inactive); in the assay with NCI-H460, 31.2 µM (inactive); with HT-29, 30.1 µM (inactive); in the assay with SF-295 it was 31.3 µM (inactive); in the assay on COLO 205 it was 28.4 µM (inactive); in the assay on LOX IMVI, 23.5 µM (inactive). Besides, the GI50 with UO-31 was 33.3 µM (inactive); with OVCAR-3 it was 27 µM (inactive); with SK-OV-3, 47.3 µM (inactive); in the assay with SF-539, 45.1 µM (inactive); in the assay on HCT-15, 26.9 µM; with HCT-116, 36.5 µM (inactive). The GI50 was 33.3 µM (inactive) in the assay with 786-0 and 32.3 µM (inactive) with PC-3.
